Test results reported in ChEMBL document CHEMBL3872201, “Synthesis and antiproliferative activity of a natural like glycoconjugate polycyclic compound” (2016).
The source made the active and inactive calls. No cut-off for these calls is given here.

Key:
[1] = Cell cycle arrest in human MDA-MB-231 cells assessed as cell enlargement at 5 to 10 uM after 8 days by light microscopic analysis; assay type: functional, cell-based
[2] = Antiproliferative activity against human CCRF-CEM cells after 48 hrs by sulforhodamine B assay; assay type: functional
[3] = Antiproliferative activity against human K562 cells after 48 hrs by sulforhodamine B assay; assay type: functional; details: K562, 48 h
[4] = Antiproliferative activity against human SR cells after 48 hrs by sulforhodamine B assay; assay type: functional
[5] = Antiproliferative activity against human HOP62 cells after 48 hrs by sulforhodamine B assay; assay type: functional; details: HOP-62, 48 h
[6] = Antiproliferative activity against human HOP92 cells after 48 hrs by sulforhodamine B assay; assay type: functional; details: HOP-92, 48 h
[7] = Antiproliferative activity against human NCI-H23 cells after 48 hrs by sulforhodamine B assay; assay type: functional; details: NCI-H23, 48 h
[8] = Antiproliferative activity against human NCI-H522 cells after 48 hrs by sulforhodamine B assay; assay type: functional; details: NCI-H522, 48 h
[9] = Antiproliferative activity against human COLO205 cells after 48 hrs by sulforhodamine B assay; assay type: functional; details: COLO 205, 48 h
[10] = Antiproliferative activity against human HCT116 cells after 48 hrs by sulforhodamine B assay; assay type: functional; details: HCT-116, 48 h
[11] = Antiproliferative activity against human HT-29 cells after 48 hrs by sulforhodamine B assay; assay type: functional; details: HT-29, 48 h
[12] = Antiproliferative activity against human KM12 cells after 48 hrs by sulforhodamine B assay; assay type: functional; details: KM12, 48 h
[13] = Antiproliferative activity against human SW620 cells after 48 hrs by sulforhodamine B assay; assay type: functional; details: SW-620, 48 h
[14] = Antiproliferative activity against human SNB19 cells after 48 hrs by sulforhodamine B assay; assay type: functional; details: SNB-19, 48 h
[15] = Antiproliferative activity against human MDA-MB-435 cells after 48 hrs by sulforhodamine B assay; assay type: functional; details: MDA-MB-435, 48 h
[16] = Antiproliferative activity against human SK-MEL-5 cells after 48 hrs by sulforhodamine B assay; assay type: functional; details: SK-MEL-5, 48 h
[17] = Antiproliferative activity against human UACC257 cells after 48 hrs by sulforhodamine B assay; assay type: functional; details: UACC-257, 48 h
[18] = Antiproliferative activity against human OVCAR3 cells after 48 hrs by sulforhodamine B assay; assay type: functional; details: OVCAR-3, 48 h
[19] = Antiproliferative activity against human OVCAR4 cells after 48 hrs by sulforhodamine B assay; assay type: functional; details: OVCAR-4, 48 h
[20] = Antiproliferative activity against human OVCAR8 cells after 48 hrs by sulforhodamine B assay; assay type: functional; details: OVCAR-8, 48 h
[21] = Antiproliferative activity against human NCI-ADR-RES cells after 48 hrs by sulforhodamine B assay; assay type: functional
[22] = Antiproliferative activity against human TK10 cells after 48 hrs by sulforhodamine B assay; assay type: functional; details: TK-10, 48 h
[23] = Antiproliferative activity against human UO31 cells after 48 hrs by sulforhodamine B assay; assay type: functional; details: UO-31, 48 h
[24] = Antiproliferative activity against human PC3 cells after 48 hrs by sulforhodamine B assay; assay type: functional; details: PC-3, 48 h
[25] = Antiproliferative activity against human T47D cells after 48 hrs by sulforhodamine B assay; assay type: functional
[26] = Antiproliferative activity against human MDA-MB-468 cells after 48 hrs by sulforhodamine B assay; assay type: functional; details: MDA-MB-468, 48 h
[27] = Cytotoxicity against human MDA-MB-231 cells assessed as inhibition of cell viability at 5 uM after 48 hrs by MTT assay relative to control; assay type: functional; details: MDA-MB-231, 48 h
[28] = Cell cycle arrest in human MDA-MB-231 cells assessed as accumulation at G0/G1 phase at 10 uM after 24 hrs by propidium iodide staining based flow cytometric analysis (reference value: 66.5%); assay type: functional
[29] = Cell cycle arrest in human MDA-MB-231 cells assessed as accumulation at G2/M phase at 10 uM after 24 hrs by propidium iodide staining based flow cytometric analysis (reference value: 20.4%); assay type: functional
[30] = Cell cycle arrest in human MDA-MB-231 cells assessed as accumulation at G0/G1 phase at 5 uM after 48 hrs by propidium iodide staining based flow cytometric analysis (reference value: 67%); assay type: functional
[31] = Cell cycle arrest in human MDA-MB-231 cells assessed as accumulation at subG0/G1 phase at 10 uM after 72 hrs by propidium iodide staining based flow cytometric analysis (reference value: 6.3%); assay type: functional
[32] = Cell cycle arrest in human MDA-MB-231 cells assessed as accumulation at G0/G1 phase at 10 uM after 72 hrs by propidium iodide staining based flow cytometric analysis (reference value: 69.3%); assay type: functional
MDA-MB-231 [33] = assay: Effect on cell cycle regulatory protein in human MDA-MB-231 cells assessed as cyclin B1 level at 5 uM after 24 hrs by Western blot analysis relative to control; assay type: functional
MDA-MB-231 [34] = assay: Effect on cell cycle regulatory protein in human MDA-MB-231 cells assessed as cyclin B1 level at 10 uM after 48 hrs by Western blot analysis relative to control; assay type: functional
MDA-MB-231 [35] = assay: Effect on cell cycle regulatory protein in human MDA-MB-231 cells assessed as cdc2 level at 10 uM after 48 hrs by Western blot analysis relative to control; assay type: functional
[36] = read-out: LC50 (the source's name)

SMILES: C=C1c2c(C)nn(-c3ccc(C#CCO[C@@H]4O[C@H](CO)[C@@H](O)[C@H](O)[C@H]4O)cc3)c2N(C)C23CC1C1(C)c4c(C)nn(-c5ccc(C#CCO[C@@H]6O[C@H](CO)[C@@H](O)[C@H](O)[C@H]6O)cc5)c4N(C)C(C)(CC12)C3 (some centres undefined)
- Activity [1]: Active
- GI50 [2]: 1.04 µM
- TGI [2]: 5.03 µM
- CC50 [2, 36]: > 100 µM
- GI50 [3]: 1.89 µM
- TGI [3]: 6.75 µM
- CC50 [3, 36]: > 100 µM
- GI50 [4]: 3.28 µM
- TGI [4]: 100 µM
- CC50 [4, 36]: 100 µM
- GI50 [5]: 1.49 µM
- TGI [5]: 2.88 µM
- CC50 [5, 36]: 5.57 µM
- GI50 [6]: 0.43 µM
- TGI [6]: 2.52 µM
- CC50 [6, 36]: 8.63 µM
- GI50 [7]: 2.33 µM
- TGI [7]: 6.59 µM
- CC50 [7, 36]: 100 µM
- GI50 [8]: 1.67 µM
- TGI [8]: 3.26 µM
- CC50 [8, 36]: 6.37 µM
- GI50 [9]: 1.47 µM
- TGI [9]: 2.88 µM
- CC50 [9, 36]: 5.63 µM
- GI50 [10]: 1.27 µM
- TGI [10]: 2.97 µM
- GI50 [11]: 1.63 µM
- TGI [11]: 4.21 µM
- CC50 [11, 36]: 16.1 µM
- GI50 [12]: 1.44 µM
- TGI [12]: 2.9 µM
- CC50 [12, 36]: 5.84 µM
- GI50 [13]: 1.72 µM
- TGI [13]: 3.77 µM
- CC50 [13, 36]: 8.29 µM
- GI50 [14]: 1.66 µM
- TGI [14]: 3.95 µM
- CC50 [14, 36]: 9.37 µM
- GI50 [15]: 1.67 µM
- TGI [15]: 3.77 µM
- CC50 [15, 36]: 8.5 µM
- GI50 [16]: 1.38 µM
- TGI [16]: 2.71 µM
- CC50 [16, 36]: 5.31 µM
- GI50 [17]: 1.82 µM
- TGI [17]: 4.56 µM
- CC50 [17, 36]: 15.4 µM
- GI50 [18]: 1.52 µM
- TGI [18]: 3.8 µM
- CC50 [18, 36]: 9.49 µM
- GI50 [19]: 1.68 µM
- TGI [19]: 9.94 µM
- CC50 [19, 36]: 31.8 µM
- GI50 [20]: 1 µM
- TGI [20]: 3.84 µM
- CC50 [20, 36]: 55.1 µM
- GI50 [21]: 5.43 µM
- TGI [21]: 47 µM
- CC50 [21, 36]: 100 µM
- GI50 [22]: 2.01 µM
- TGI [22]: 4.04 µM
- CC50 [22, 36]: 8.09 µM
- GI50 [23]: 2.83 µM
- TGI [23]: 10.1 µM
- CC50 [23, 36]: 31.8 µM
- GI50 [24]: 0.7 µM
- TGI [24]: 2.56 µM
- CC50 [24, 36]: 7.79 µM
- GI50 [25]: 0.68 µM
- TGI [25]: 6.8 µM
- CC50 [25, 36]: 100 µM
- GI50 [26]: 1.34 µM
- TGI [26]: 2.73 µM
- CC50 [26, 36]: 5.57 µM
- inhibition at 5 µM [27]: 68%
- Activity [28]: 52%
- Activity [29]: 36.6%
- Activity [30]: 64.3%
- Activity [31]: 1.6%
- Activity [32]: 61.8%
- fold change (FC) (MDA-MB-231 [33]): 0.9
- fold change (FC) (MDA-MB-231 [34]): 0.5
- fold change (FC) (MDA-MB-231 [35]): 0.3
